Reference: ChEMBL document CHEMBL1201862, “PubChem BioAssay data set” (2004)
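In this assay, cells in 96-well plates receive the compound at five concentrations for 48 hours. Endpoints are linearly interpolated between the surrounding concentrations. GI50 marks 50% less growth.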 Active and inactive are the calls of the source. No stated cut-off is given here; in the data, active = GI50 up to about 1.1 µM and inactive = higher.

Legend:
Experiment in all cases: growth of human tumour cells (NCI), 48 h
[1] = tested on: 786-0
[2] = tested on: A498
[3] = tested on: COLO 205
[4] = tested on: K562
[5] = tested on: M14
[6] = tested on: MOLT-4
[7] = tested on: NCI-H226
[8] = tested on: RPMI-8226
[9] = tested on: RXF 393
[10] = tested on: SK-MEL-28
[11] = tested on: SK-MEL-2
[12] = tested on: SK-MEL-5
[13] = tested on: SK-OV-3
[14] = tested on: SNB-19
[15] = tested on: SNB-75
[16] = tested on: U-251
[17] = tested on: UACC-62
[18] = tested on: SR

| SMILES | GI50 [1] | GI50 [2] | GI50 [3] | GI50 [4] | GI50 [5] | GI50 [6] | GI50 [7] | GI50 [8] | GI50 [9] | GI50 [10] | GI50 [11] | GI50 [12] | GI50 [13] | GI50 [14] | GI50 [15] | GI50 [16] | GI50 [17] | GI50 [18] |
| --- | --- | --- | --- | --- | --- | --- | --- | --- | --- | --- | --- | --- | --- | --- | --- | --- | --- | --- |
| Nc1cccc2c1C(=O)c1cccc(N)c1C2=O | > 100 µM (inactive) | > 100 µM (inactive) | > 100 µM (inactive) | > 100 µM (inactive) | > 100 µM (inactive) | > 100 µM (inactive) | > 100 µM (inactive) | > 100 µM (inactive) | 46.3 µM (inactive) | > 100 µM (inactive) | > 100 µM (inactive) | > 100 µM (inactive) | > 100 µM (inactive) | > 100 µM (inactive) | > 100 µM (inactive) | > 100 µM (inactive) | > 100 µM (inactive) | – |
| Cc1ccc([S+](c2ccccc2)c2cc(C)ccc2C)cc1 (stereo unspecified) | 35.2 µM (inactive) | 0.0435 µM (active) | 2.99 µM (inactive) | 0.374 µM (active) | 22.2 µM (inactive) | 3.65 µM (inactive) | – | 3.66 µM (inactive) | – | – | – | 0.53 µM (active) | – | 4.38 µM (inactive) | < 0.01 µM (active) | – | 4.52 µM (inactive) | 24.6 µM (inactive) |
| CCOC(=O)c1cc(/C=C/C(C)=C/C(=O)OC)oc1C | > 100 µM (inactive) | – | > 100 µM (inactive) | > 100 µM (inactive) | > 100 µM (inactive) | > 100 µM (inactive) | – | > 100 µM (inactive) | – | > 100 µM (inactive) | > 100 µM (inactive) | – | > 100 µM (inactive) | > 100 µM (inactive) | > 100 µM (inactive) | > 100 µM (inactive) | > 100 µM (inactive) | > 100 µM (inactive) |
| CCC1c2cc3n(c(=O)c2COC1O)Cc1c-3nc2ccccc2c1Cl (stereo unspecified) | 25.7 µM (inactive) | 52.6 µM (inactive) | > 89.5 µM (inactive) | 32.2 µM (inactive) | 25 µM (inactive) | 3.28 µM (inactive) | 39.6 µM (inactive) | > 29.3 µM (inactive) | 73.8 µM (inactive) | > 100 µM (inactive) | > 100 µM (inactive) | 29.4 µM (inactive) | > 75 µM (inactive) | 30.3 µM (inactive) | 20.5 µM (inactive) | 9.86 µM (inactive) | 6.95 µM (inactive) | – |
| [O-][S+]1Nc2c(Cl)cc(Cl)c3c(Cl)cc(Cl)c(c23)N1 | 18.5 µM (inactive) | 21.9 µM (inactive) | > 100 µM (inactive) | 41.5 µM (inactive) | 31.8 µM (inactive) | 22.6 µM (inactive) | 25.1 µM (inactive) | 37.8 µM (inactive) | 21.9 µM (inactive) | 62.8 µM (inactive) | 47 µM (inactive) | 37.8 µM (inactive) | 45.7 µM (inactive) | 40.3 µM (inactive) | 26.1 µM (inactive) | 28.2 µM (inactive) | 22.3 µM (inactive) | – |
| CO[C@H](C(=O)O[C@H]1C(=O)N2CC[C@@H]3CCC[C@H]1C32C)c1ccccc1 (stereo partly specified) | > 100 µM (inactive) | – | > 100 µM (inactive) | > 100 µM (inactive) | > 100 µM (inactive) | > 100 µM (inactive) | > 100 µM (inactive) | > 100 µM (inactive) | > 100 µM (inactive) | > 100 µM (inactive) | > 100 µM (inactive) | > 100 µM (inactive) | > 100 µM (inactive) | > 100 µM (inactive) | – | > 100 µM (inactive) | > 100 µM (inactive) | > 100 µM (inactive) |
| CCOC(=O)/C(=C\c1ccccc1)C(=O)O | > 100 µM (inactive) | > 100 µM (inactive) | > 100 µM (inactive) | > 100 µM (inactive) | > 100 µM (inactive) | > 100 µM (inactive) | > 100 µM (inactive) | > 100 µM (inactive) | – | > 100 µM (inactive) | > 100 µM (inactive) | > 100 µM (inactive) | > 100 µM (inactive) | > 100 µM (inactive) | – | > 100 µM (inactive) | > 100 µM (inactive) | > 100 µM (inactive) |
| Cc1nc(-c2nc(C)c(C(=O)/C=C/c3ccc(N(C)C)cc3)s2)sc1C(=O)/C=C/c1ccc(N(C)C)cc1 | 54 µM (inactive) | – | > 100 µM (inactive) | 33.4 µM (inactive) | 38.5 µM (inactive) | > 100 µM (inactive) | > 100 µM (inactive) | – | > 100 µM (inactive) | 67.3 µM (inactive) | > 100 µM (inactive) | – | > 100 µM (inactive) | 64.1 µM (inactive) | – | > 100 µM (inactive) | 18.5 µM (inactive) | > 100 µM (inactive) |
| CC1=C[C@H]2c3c([nH]c4ccccc34)C(c3c[nH]c4ccccc34)[C@H]2CC1 (stereo partly specified) | 3.88 µM (inactive) | 15.5 µM (inactive) | 3.41 µM (inactive) | 3.75 µM (inactive) | 6.52 µM (inactive) | 2.15 µM (inactive) | 11 µM (inactive) | 3.24 µM (inactive) | 1.74 µM (inactive) | 12.1 µM (inactive) | – | 11.9 µM (inactive) | 13.7 µM (inactive) | – | 6.44 µM (inactive) | 4.55 µM (inactive) | 10.6 µM (inactive) | – |
| CCCc1c2c([nH]c(=O)c1C)C(=O)c1[nH]c(=O)c(C)c(CCC)c1C2=O | 25.1 µM (inactive) | > 100 µM (inactive) | 25.8 µM (inactive) | 17.4 µM (inactive) | 1.66 µM (inactive) | 3.93 µM (inactive) | 77.3 µM (inactive) | – | 19.4 µM (inactive) | 23.6 µM (inactive) | – | 3.29 µM (inactive) | – | 18.7 µM (inactive) | 22.6 µM (inactive) | – | – | 5.56 µM (inactive) |
| O=C1C=CC(=O)c2nc3c(cc21)CCC3 | 18 µM (inactive) | – | 14.5 µM (inactive) | 16.9 µM (inactive) | 16.6 µM (inactive) | 11.6 µM (inactive) | – | – | 19.7 µM (inactive) | 25.6 µM (inactive) | – | 20.4 µM (inactive) | – | > 100 µM (inactive) | 67.5 µM (inactive) | 78.5 µM (inactive) | 18.6 µM (inactive) | 5.92 µM (inactive) |
| COc1ccc2c(c1)CC1NC2Cc2ccccc21 (stereo unspecified) | > 100 µM (inactive) | > 100 µM (inactive) | > 100 µM (inactive) | > 100 µM (inactive) | > 100 µM (inactive) | > 100 µM (inactive) | – | > 100 µM (inactive) | – | > 100 µM (inactive) | > 100 µM (inactive) | > 100 µM (inactive) | > 100 µM (inactive) | – | > 100 µM (inactive) | > 100 µM (inactive) | > 100 µM (inactive) | – |
| N=C(N)NNC(=O)CCCCCCCC(=O)NNC(=N)N | > 100 µM (inactive) | > 100 µM (inactive) | 18.3 µM (inactive) | > 100 µM (inactive) | > 100 µM (inactive) | – | – | – | > 100 µM (inactive) | > 100 µM (inactive) | > 100 µM (inactive) | > 100 µM (inactive) | > 100 µM (inactive) | > 100 µM (inactive) | – | > 100 µM (inactive) | > 100 µM (inactive) | – |
| COc1cccc(C(=O)O)c1Cc1cccc2ccccc12 | > 100 µM (inactive) | – | > 100 µM (inactive) | > 100 µM (inactive) | > 100 µM (inactive) | > 100 µM (inactive) | > 100 µM (inactive) | – | > 100 µM (inactive) | > 100 µM (inactive) | > 100 µM (inactive) | > 100 µM (inactive) | > 100 µM (inactive) | > 100 µM (inactive) | > 100 µM (inactive) | > 100 µM (inactive) | > 100 µM (inactive) | > 100 µM (inactive) |
| CN(C)c1ccc(C(C=C2c3ccccc3Sc3ccccc32)=C(C#N)C#N)cc1 | 92.3 µM (inactive) | > 100 µM (inactive) | > 100 µM (inactive) | 5.65 µM (inactive) | 58.6 µM (inactive) | > 100 µM (inactive) | – | > 100 µM (inactive) | 29 µM (inactive) | > 100 µM (inactive) | > 100 µM (inactive) | > 100 µM (inactive) | > 100 µM (inactive) | 83.4 µM (inactive) | 17.1 µM (inactive) | 37.6 µM (inactive) | 57.4 µM (inactive) | – |
| Brc1cccc(C2SCc3nc4ccccc4n32)c1 (stereo unspecified) | 17.5 µM (inactive) | – | 19.1 µM (inactive) | 9.98 µM (inactive) | 22.5 µM (inactive) | 22.6 µM (inactive) | 11.2 µM (inactive) | 12.5 µM (inactive) | 5.93 µM (inactive) | 17.1 µM (inactive) | – | 6.4 µM (inactive) | 21.6 µM (inactive) | – | 0.0533 µM (active) | 17 µM (inactive) | 12.9 µM (inactive) | 15.7 µM (inactive) |
| CCOC(=O)C1=C(Nc2cccc3ccccc23)OCC1=O | > 100 µM (inactive) | > 100 µM (inactive) | > 100 µM (inactive) | > 100 µM (inactive) | > 100 µM (inactive) | > 100 µM (inactive) | > 100 µM (inactive) | > 100 µM (inactive) | – | 43.5 µM (inactive) | > 100 µM (inactive) | > 100 µM (inactive) | > 100 µM (inactive) | > 100 µM (inactive) | > 100 µM (inactive) | > 100 µM (inactive) | > 100 µM (inactive) | > 100 µM (inactive) |
| c1ccc2c(c1)CCc1c(-c3n[nH]c4c3CCc3ccccc3-4)n[nH]c1-2 | > 100 µM (inactive) | > 100 µM (inactive) | > 100 µM (inactive) | 27.9 µM (inactive) | > 100 µM (inactive) | 87.9 µM (inactive) | > 100 µM (inactive) | – | – | > 100 µM (inactive) | > 100 µM (inactive) | > 100 µM (inactive) | > 100 µM (inactive) | > 100 µM (inactive) | 56.5 µM (inactive) | > 100 µM (inactive) | > 100 µM (inactive) | 46.9 µM (inactive) |
